In one assay the test system is A549. The assay is described as follows: MTT cytotoxic assay, A549. The class given is cell-based. The following applies: Homo sapiens, read-out: IC50 ± SD A549. The procedure: (§1) Crude extracts, in addition to six sterol compounds, were screened for their cytotoxic activities against four cancerous cell lines: HepG2, Hela, A549, and MCF-7 and a noncancerous breast (MCF-10A) cell line to test their safety using the MTT assay (Table 2). […] After fractionation and isolation of the pure compounds, six compounds were tested for their cytotoxicity. […] Additionally, it was safe against the normal cells, with IC50 ≥ 50.
(§2) Crude extract, together with six of the identified sterols, were screened for their cytotoxic activities against liver HepG2, breast MCF-7, and normal cells (MCF-10A), as well. According to the standard cell culture work, each cell line was cultured in a proper complete medium. The treatment of cells was performed with the crude extract and then, with the identified compounds for a 48-h incubation, and Fluorouracil (5-FU) was used as the standard. Percent of cell viability was calculated by the following formula: % cell viability = (Mean absorbance of tested compound)/(Mean absorbance in control) × 100. Then, IC50 in µM was calculated using GraphPad Prism 7.
(Formazan colour is commonly taken as a measure of viable cells.)

In a further assay the test system is Hela. The assay is described as follows: MTT cytotoxic assay, Hela. Particulars: Homo sapiens. The class given is cell-based. The procedure: as §1, §2
Another assay concerns MCF-7. The assay is described as follows: MTT cytotoxic assay, MCF-7. The class given is cell-based, human. The procedure: as §1, §2
The test system of a further assay is HepG2. The assay is described as follows: MTT cytotoxic assay, HepG2. The class given is cell-based. Particulars: Homo sapiens, read-out: IC50 ± SD HepG2. The protocol: as §1, §2
The next assay has as its system Normal Cells MCF-10A. The assay is described as follows: MTT cytotoxic assay, normal cells MCF-10A. The following applies: Homo sapiens, pure compounds, 48-h incubation, n = 3, read-out: IC50 ± SD Normal Cells MCF-10A. The class given is cell-based. The procedure:
as §1, §2

The subject of assay [1] is MCF-7 cancer cells. The assay is described as follows: Annexin V/PI flow cytometric apoptosis/necrosis assessment. Particulars: MCF-7, treated at IC50 = 25.92 μM, 48 h. The class given is cell-based, human. An excerpt: (§3) Moreover, MCF-7 cancer cells after compound 1 treatment were subjected to DNA flow cytometry to analyse the cell cycle kinetics to determine the compound’s phase interference with the cell cycle. The study of the cell cycle is a crucial test showing the cell accumulation percentage in each growth phase with cytotoxic substances after treatment. […] Consequently, compound 1 induced pre-G1 and G2/M-phase cell cycle arrest and blocked the progression of MCF-7 cancer cells that deteriorated the genetic material.
(§4) Cell cycle analysis, as well as apoptotic assays, were performed in detail according to the previously described methods. Full methodologies of flow cytometric assays were provided in the Supplementary File.
On the technique in general: Flow cytometry measures light scatter and fluorescence of single cells or particles in a stream.

In the next assay the test system is caspase 9. The assay is described as follows: RT-PCR mRNA expression in MCF-7 cells, caspase 9. The class given is cell-based, human. Particulars: MCF-7, treated at IC50 = 25.92 μM, 48 h. The protocol: (§5) The results are in accordance with the proposed apoptotic pathway for anticancer activity.
(§6) At the end of treatments, cells were collected, and total RNA was extracted using a RNeasy® Mini Kit (Qiagen, Hilden, Germany) according to the manufacturer’s instructions. cDNA synthesis was performed with 500 ng of RNA using the i-Script cDNA synthesis kit (Bio-Rad, Hercules, CA, USA) following the manufacturer’s instructions. Real-time (RT)-PCR reactions consisted of 25-µL Fluocycle®II SYBR® (Euroclone, Milan, Italy), 1.5 µL of both 10-µM forward and reverse primers, 3-µL cDNA, and 19 µL of H2O. All reactions were performed for 35 cycles using this temperature profile: 95 °C for 5 m (initial denaturation); 95 °C for […] (Denaturation), 55 °C for […] (Annealing), and 72 °C for […] (Extension). Then, The cycle threshold (Ct) values were collected and the relative folds of changes between all the samples. Primer used were listed in the Supplementary Files.

The subject of the next assay is P53 gene. The assay is described as follows: RT-PCR mRNA expression in MCF-7 cells, P53. Particulars: MCF-7, treated at IC50 = 25.92 μM, 48 h. The class given is cell-based, human. The procedure:
as §5, §6

In the next assay the test system is antiapoptotic Bcl-2 gene. The assay is described as follows: RT-PCR mRNA expression in MCF-7 cells, Bcl-2. The class given is cell-based, human. The following applies: MCF-7, treated at IC50 = 25.92 μM, 48 h. The protocol: as §5, §6
The test system of a further assay is caspase 3. The assay is described as follows: RT-PCR mRNA expression in MCF-7 cells, caspase 3. The class given is cell-based, human. The following applies: MCF-7, treated at IC50 = 25.92 μM, 48 h. The protocol:
as §5, §6

Another assay deals with BAX. The assay is described as follows: RT-PCR mRNA expression in MCF-7 cells, BAX. The class given is cell-based, human. The following applies: MCF-7, treated at IC50 = 25.92 μM, 48 h. The protocol: as §5, §6
Assay [2] deals with MCF-7 cancer cells. The assay is described as follows: DNA content flow cytometry cell cycle analysis. The class given is cell-based, human. The following applies: MCF-7, treated at IC50 = 25.92 μM, 48 h.
From the text: as §3, §4

The test system of another assay is caspase 8. The assay is described as follows: RT-PCR mRNA expression in MCF-7 cells, caspase 8. The class given is cell-based, human. The following applies: MCF-7, treated at IC50 = 25.92 μM, 48 h. The procedure: as §5, §6
Where [3] appears, read: Homo sapiens, MCF7, 48 h, pure compounds, MTT, 48-h incubation, n = 3, read-out: IC50 ± SD MCF-7.
[4] abbreviates: HepG2, pure compounds, MTT, 48-h incubation, n = 3.
The mark [5] stands for this setting: A549, pure compounds, MTT, 48-h incubation, n = 3.
Where [6] appears, read: pure compounds, MTT, 48-h incubation, n = 3, read-out: IC50 ± SD Hela.

Several values for one entry are separate records, joined by “and”; a condition that tells them apart may be missing. Equal entries are not always repeated. Where two headings read alike, the source gives them in different places.

`CC[C@H](CC[C@@H](C)[C@H]1CC[C@H]2[C@@H]3CC=C4C[C@@H](O)CC[C@]4(C)[C@H]3CC[C@]12C)C(C)C` [Compound 5, β-sitosterol]: the IC50 is at least 50 µM with A549 (A549, 48 h); 42.3 ± 1.02 µM with Hela (48 h, read-out: IC50 ± SD Hela); at least 50 µM in the assay with MCF-7 (Homo sapiens, MCF7, 48 h, read-out: IC50 ± SD MCF-7); at least 50 µM with HepG2 (HepG2, 48 h); at least 50 µM in the assay on Normal Cells MCF-10A.
Consider `CCC(CCC(C)C1CCC2C3CC=C4CC(OC5OC(CO)C(O)C(O)C5O)CCC4(C)C3CCC12C)C(C)C` [Compound 7, β-sitosterol-3-O-β-D-glucoside], for which the results for the IC50 in the assay with MCF-7 (setting [3]), with HepG2 (setting [4]) and in the assay with Normal Cells MCF-10A were 38.1 ± 0.98 µM, at least 50 µM and at least 50 µM, respectively.
Take `CCC(CC[C@@H](C)[C@H]1CC[C@H]2[C@@H]3CC(O)C4=CC(=O)CC[C@]4(C)[C@H]3CC[C@]12C)C(C)C` (stereo partly drawn) [Compound 3, 6-β-hydroxy-24-ethyl-cholest-4-en-3-one]: the IC50 was 49.9 ± 1.03 µM in the assay on A549 (setting [5]), at least 50 µM in the assay with Hela (setting [6]), at least 50 µM in the assay on MCF-7 (setting [3]) and at least 50 µM with Normal Cells MCF-10A.
Turning to `CCCCCC/C=C\C/C=C\CCCCCCC(=O)OC[C@H]1O[C@@H](O[C@H]2CCC3(C)C(=CCC4C3CCC3(C)C(C(C)CCC(CC)C(C)C)CCC43)C2)[C@H](O)[C@@H](O)[C@@H]1O` (stereo partly drawn) [Compound 1, (6’-O-octadeca-8″,11″-dienoyl)-sitosterol-3-O-β-D-glucoside], the “apoptotic cell death, fold vs control” value in the assay with MCF-7 cancer cells [1] came to 32.6 fold. Moreover, in the assay with MCF-7 cancer cells [1], the “cell death via necrosis, fold vs control” value is given as 10.8 fold. In the assay on MCF-7 cancer cells [1] (control 0.51%), the “apoptotic cell death, total apoptosis” value was 16.63%. Also, the “cell death via necrosis” value in the assay on MCF-7 cancer cells [1] (control 0.86%) is reported as 9.31%. Further, in the assay with caspase 9, the “caspase 9 mRNA level, fold change” value is 5.44 fold and 5.44± 0.49 fold. In addition, the IC50 with MCF-7 (setting [3]) was 25.8 µM; with MCF-7 (pure compounds, MTT, 48-h incubation, n = 3, read-out: IC50 ± SD MCF-7) it was 25.8 ± 1.04 µM; in the assay on HepG2 (setting [4]), 27.5 ± 1.04 µM; in the assay on Normal Cells MCF-10A, at least 50 µM. The “LogIC50 (Figure 4 curve fit)” value with MCF-7 (MCF-7, nonlinear regression dose-inhibition curve fit) is given as 1.412. Besides, the “P53 gene mRNA level, fold change” value in the assay on P53 gene was “≈ 3.55 fold and 3.55± 0.28 fold”. Also, the “Bcl-2 mRNA level, fold change” value in the assay on antiapoptotic Bcl-2 gene was “≈ 0.81 fold and 0.81± 0.05 fold”. In addition, in the assay on caspase 3, the “caspase 3 mRNA level, fold change” value is “≈ 5.01 fold and 5.01± 0.27 fold”. The “BAX mRNA level, fold change” value in the assay on BAX was 3.77 fold and 3.77± 0.37 fold. This molecule also gave a pre-G1 cell population with MCF-7 cancer cells [2] (control 1.37%) of 25.94%. Moreover, in the assay with MCF-7 cancer cells [2] (control 7.46%), the G2/M cell population is on record as 26.74%. Further, the “cell population in S” value in the assay with MCF-7 cancer cells [2] (control 34.26%) is 24.95%. Moreover, the “caspase 8 mRNA level, fold change” value in the assay on caspase 8 was 1.9 fold and 1.9± 0.13 fold.
For `CC[C@H](CC[C@@H](C)[C@H]1CC[C@H]2[C@@H]3CCC4=CC(=O)CC[C@]4(C)[C@H]3CC[C@]12C)C(C)C` [Compound 2, stigmast-4-en-3-one], the IC50 in the assay on A549 (A549, 48 h) is 45.6 ± 0.75 µM; in the assay on Hela (48 h, read-out: IC50 ± SD Hela), 32.5 ± 0.89 µM; in the assay with MCF-7 (Homo sapiens, MCF7, 48 h, read-out: IC50 ± SD MCF-7, pure compounds, MTT, 48-h incubation, n = 3) it was at least 50 µM; in the assay with Normal Cells MCF-10A, at least 50 µM.
Take `CCCCCCCCCCCCCCCC(=O)OCC1OC(OC2CCC3(C)C(=CCC4C3CCC3(C)C(C(C)CCC(CC)C(C)C)CCC43)C2)C(O)C(O)C1O` [Compound 6, (6’-O-palmitoyl)-sitosterol-3-O-β-D-glucoside]: the half-inhibitory concentration (IC50) is at least 50 µM in the assay with MCF-7 (setting [3]), 42.5 ± 1.71 µM with HepG2 (setting [4]) and at least 50 µM in the assay with Normal Cells MCF-10A.
Consider `O=c1[nH]cc(F)c(=O)[nH]1` [Compound 5-FU, 5-fluorouracil, reference compound], for which the IC50 with A549 (setting [5]) was 7.47 ± 0.43 µM; with Hela (setting [6]), 13 ± 0.65 µM; with MCF-7 (setting [3]), 27 ± 0.76 µM; with HepG2 (setting [4]), 15.8 ± 0.28 µM; in the assay with Normal Cells MCF-10A, at least 50 µM.

A word on the IC50: it is the concentration needed to halve the response being measured.

The record behind these values is PMC7731115, “Cytotoxic, Apoptosis-Inducing Activities, and Molecular Docking of a New Sterol from Bamboo Shoot Skin Phyllostachys heterocycla var. pubescens” (Molecules, 2020).
